In PubChem BioAssay (NCI):
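Five compound concentrations were applied to cells in 96-well plates for 48 hours; endpoints were derived by simple linear interpolation of the resulting dose-response curve. TGI: concentration producing complete growth inhibition.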

What was measured:
Test in all cases: NCI tumour cell line growth inhibition, 48 h
[1] = tested on: 786-0 renal
[2] = tested on: A498 renal
[3] = tested on: A549 NSCLC
[4] = tested on: ACHN renal
[5] = tested on: CAKI-1 renal
[6] = tested on: CCRF-CEM leukemia
[7] = tested on: COLO 205 colon
[8] = tested on: DLD-1 colon
[9] = tested on: DMS 114 small cell lung
[10] = tested on: EKVX NSCLC
[11] = tested on: HCC-2998 colon
[12] = tested on: HCT-116 colon
[13] = tested on: HCT-15 colon
[14] = tested on: HL-60(TB) leukemia
[15] = tested on: HOP-18 NSCLC
[16] = tested on: HOP-62 NSCLC
[17] = tested on: HOP-92 NSCLC
[18] = tested on: HT29 colon
[19] = tested on: IGROV1 ovarian
[20] = tested on: K-562 leukemia
[21] = tested on: KM12 colon
[22] = tested on: KM20L2 colon
[23] = tested on: LOX IMVI melanoma
[24] = tested on: LXFL 529 NSCLC
[25] = tested on: M14 melanoma
[26] = tested on: M19-MEL melanoma
[27] = tested on: MALME-3M melanoma
[28] = tested on: MOLT-4 leukemia
[29] = tested on: NCI-H226 lung
[30] = tested on: NCI-H23 lung
[31] = tested on: NCI-H460 lung
[32] = tested on: NCI-H522 lung
[33] = tested on: OVCAR-3 ovarian
[34] = tested on: OVCAR-4 ovarian
[35] = tested on: OVCAR-5 ovarian
[36] = tested on: OVCAR-8 ovarian
[37] = tested on: RPMI-8226 leukemia
[38] = tested on: RXF 393 renal
[39] = tested on: SF-268 CNS
[40] = tested on: SF-295 CNS
[41] = tested on: SF-539 CNS
[42] = tested on: SK-MEL-2 melanoma
[43] = tested on: SK-MEL-28 melanoma
[44] = tested on: SK-MEL-5 melanoma
[45] = tested on: SK-OV-3 ovarian
[46] = tested on: SN12C renal
[47] = tested on: SNB-19 CNS
[48] = tested on: SNB-75 CNS
[49] = tested on: SNB-78 CNS
[50] = tested on: SR leukemia
[51] = tested on: TK-10 renal
[52] = tested on: U251 CNS
[53] = tested on: UACC-257 melanoma
[54] = tested on: UACC-62 melanoma
[55] = tested on: UO-31 renal
[56] = tested on: XF 498 CNS
[57] = tested on: DMS 273 small cell lung
[58] = tested on: SW-620 colon

Measured: TGI

CS/C(c1ccccc1)=[N+](\[O-])Cc1ccccc1
43.3 µM: [50]
55.3 µM: [37]
32.9 µM: [13]
31.6 µM: [23]
not listed: [57] | [58]
> 100 µM: all other assays above

Cc1ccccc1C(=O)Oc1ccc(OCc2ccccc2)cc1
68 µM: [50]
not listed: [5] | [29] | [32] | [42]
> 100 µM: all other assays above
